Experiments:
[1] = molecular target: T1, recombinant human 5-HT6 receptor (Homo sapiens, UniProt P50406); assay: Radioligand binding, [3H]LSD competition in HEK293 cell membranes; details: [3H]LSD displacement, pH 7.4 at 37° C., read-out: pKi for the 5-HT6 receptor (converted)
T1 construct: expressed in transfected cells
Protocol: (§1) The binding activity of compounds of this invention in vitro was determined as follows. Duplicate determinations of 5-HT6 ligand affinity were made by competing for binding of [^3H]LSD in cell membranes derived from HEK293 cells stably expressing recombinant human 5-HT6 receptor. Duplicate determinations of 5-HT2A ligand affinity were made by competing for binding of [^3H]Ketanserin (3-(2-(4-(4-fluorobenzoyl)piperidinol)ethyl)-2,4(1H,3H)-quinazolinedione) in cell membranes derived from CHO-Ki cells stably expressing recombinant human 5-HT2A receptor. Membranes were prepared from HEK 293 cell lines by the method described by Monsma et al., Molecular Pharmacology, Vol. 43 pp. 320-327 (1993), and from CHO-K1 cell lines as described by Bonhaus et al., Br J Pharmacol. June; 115(4):622-8 (1995).
(§2) For estimation of affinity at the 5-HT6 receptor, all determinations were made in assay buffer containing 50 mM Tris-HCl, 10 mM MgSO4, 0.5 mM EDTA, 1 mM ascorbic acid, pH 7.4 at 37° C., in a 250 microliter reaction volume. […]
(§3) Assay tubes containing [^3H] […] LSD or [^3H]Ketanserin were determined as radioactive counts per minute using Packard TopCount.
(§4) Displacement of [^3H]LSD or [^3H]Ketanserin from the binding sites was quantified by fitting concentration-binding data to a 4-parameter logistic equation: […]

[2] = molecular target: T2, recombinant human 5-HT2A receptor (Homo sapiens, UniProt P28223); assay: Radioligand binding, [3H]Ketanserin competition in CHO-K1 cell membranes; details: [3H]Ketanserin displacement, pH 7.4 at 32° C., read-out: pKi for the 5-HT2A receptor (converted)
T2 construct: expressed in transfected cells
T2 sequence (P28223 whole entry): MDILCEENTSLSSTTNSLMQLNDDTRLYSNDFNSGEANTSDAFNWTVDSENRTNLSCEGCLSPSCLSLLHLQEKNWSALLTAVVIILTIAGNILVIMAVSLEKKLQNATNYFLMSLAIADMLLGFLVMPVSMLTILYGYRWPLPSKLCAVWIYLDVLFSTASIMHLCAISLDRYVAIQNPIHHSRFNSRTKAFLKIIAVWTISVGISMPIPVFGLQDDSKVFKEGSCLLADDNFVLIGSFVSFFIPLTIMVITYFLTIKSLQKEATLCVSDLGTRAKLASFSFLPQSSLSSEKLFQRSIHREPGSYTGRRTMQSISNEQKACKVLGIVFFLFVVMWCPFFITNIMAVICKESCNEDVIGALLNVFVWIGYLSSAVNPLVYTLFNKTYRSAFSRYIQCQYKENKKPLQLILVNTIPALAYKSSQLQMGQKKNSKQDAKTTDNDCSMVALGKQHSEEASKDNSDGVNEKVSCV
Protocol: as §1, §2, §3, §4

T1 sequence (P50406 whole entry): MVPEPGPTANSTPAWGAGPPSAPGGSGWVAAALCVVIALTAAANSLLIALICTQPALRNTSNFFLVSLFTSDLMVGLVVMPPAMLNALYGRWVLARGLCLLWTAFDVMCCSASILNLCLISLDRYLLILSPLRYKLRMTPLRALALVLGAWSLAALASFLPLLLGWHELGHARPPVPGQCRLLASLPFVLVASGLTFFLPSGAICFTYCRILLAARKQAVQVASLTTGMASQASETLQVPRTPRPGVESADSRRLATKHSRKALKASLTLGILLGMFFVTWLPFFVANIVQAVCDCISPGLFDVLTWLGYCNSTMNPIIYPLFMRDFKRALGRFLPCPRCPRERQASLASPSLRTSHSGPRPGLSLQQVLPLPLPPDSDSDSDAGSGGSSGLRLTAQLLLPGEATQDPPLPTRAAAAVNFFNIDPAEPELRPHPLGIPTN

| SMILES | Ki [1] | Ki [2] |
| --- | --- | --- |
| CNC(=O)c1cc2c(N3CCNCC3)cccc2n1Cc1cccc(F)c1 [Compound 26, 1-(3-Fluoro-benzyl)-4-piperazin-1-yl-1H-indole-2-carboxylic acid methylamide] | ~0.126 nM |  |
| Cc1cc(N2CCNCC2)c2oc(C(N)=O)c(Cc3cccc(F)c3)c2c1 [Compound 31, 3-(3-Fluoro-benzyl)-5-methyl-7-piperazin-1-yl-benzofuran-2-carboxylic acid amide] |  | ~1.23 nM |

Reference: patent publication US7741326B2, “Indole and benzofuran 2-carboxamide derivatives and uses thereof” (Roche Palo Alto LLC, priority 2006, dated 2010)
